Assay results from US11078216B2, “Bisaryl amides as NRF2 activators” (GLAXOSMITHKLINE INTELLECTUAL PROPERTY DEVELOPMENT LIMITED, priority 2016, dated 2021).

Tested on: NRF2 (NQO1 activity as marker for NRF2 activation), BEAS-2B cells
Assay: BEAS-2B NQO1 MTT Assay
Assay type: cell-based
Settings: Homo sapiens, EC50 of NQO1 specific activity induction, 48 hours incubation, read-out: EC50
Procedure, shortened: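 BEAS-2B cells were exposed to compound for 48 h at 37° C, 5% CO2, then lysed. NQO1 activity was measured kinetically by MTT reduction at 570 nm over 30 minutes; EC50 came from 3-parameter fit of Delta OD/min versus log concentration.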

Compound	EC50 [nM]
CC[C@@H]1CN(Cc2cc([C@@H](c3ccc4c(nnn4CC)c3C)C(C)(C)C(=O)NCc3ncc[nH]3)ccc2C)S(=O)(=O)c2cccnc2O1 [Example 104, (S)-N-((1H-Imidazol-2-yl)methyl)-3-(3-(((R)-4-ethyl-1,1-dioxido-3,4-dihydro-2H-pyrido[2,3-b][1,4,5]oxathiazepin-2-yl)methyl)-4-methylphenyl)-3-(1-ethyl-4-methyl-1H-benzo[d][1,2,3]triazol-5-yl)-2,2-dimethylpropanamide]	100 to 1000
CC[C@H]1Cc2ncccc2S(=O)(=O)N(Cc2cc([C@H](CC(=O)Nc3cncnc3)c3ccc4c(nnn4CC)c3C)ccc2C)C1 [Example 105, (S)-3-(3-(((S)-4-Ethyl-1,1-dioxido-4,5-dihydropyrido[2,3-f][1,2]thiazepin-2(3H)-yl)methyl)-4-methylphenyl)-3-(1-ethyl-4-methyl-1H-benzo[d][1,2,3]triazol-5-yl)-N-(pyrimidin-5-yl)propanamide]	10 to 100
CC[C@@H]1CN(Cc2cc([C@@H](c3ccc4c(nnn4CC)c3C)C(C)(C)C(=O)NC3CCS(=O)(=O)C3)ccc2C)S(=O)(=O)c2cccnc2O1 (stereo partly drawn) [Example 106, (3S)-N-(1,1-Dioxidotetrahydrothio-phen-3-yl)-3-(3-(((R)-4-ethyl-1,1-dioxido-3,4-dihydro-2H-pyrido[2,3-b][1,4,5]oxathiazepin-2-yl)methyl)-4-methylphenyl)-3-(1-ethyl-4-methyl-1H-benzo[d][1,2,3]triazol-5-yl)-2,2-dimethylpropanamide]	100 to 1000
CC[C@@H]1CN(Cc2cc([C@H](CC(=O)Nc3ccnnc3)c3ccc4c(nnn4CC)c3C)ccc2C)S(=O)(=O)c2cccnc2O1 [Example 107, (S)-3-(3-(((R)-4-Ethyl-1,1-dioxido-3,4-dihydro-2H-pyrido[2,3-b][1,4,5]oxathiazepin-2-yl)methyl)-4-methylphenyl)-3-(1-ethyl-4-methyl-1H-benzo[d][1,2,3]triazol-5-yl)-N-(pyridazin-4-yl)propanamide]	100 to 1000
CC[C@@H]1CN(Cc2cc([C@H](CC(=O)Nc3ccncn3)c3ccc4c(nnn4CC)c3C)ccc2C)S(=O)(=O)c2cccnc2O1 [Example 108, (S)-3-(3-(((R)-4-Ethyl-1,1-dioxido-3,4-dihydro-2H-pyrido[2,3-b][1,4,5]oxathiazepin-2-yl)methyl)-4-methylphenyl)-3-(1-ethyl-4-methyl-1H-benzo[d][1,2,3]triazol-5-yl)-N-(pyrimidin-4-yl)propanamide]	100 to 1000
CC[C@@H]1CN(Cc2cc([C@H](CC(=O)Nc3cncnc3)c3ccc4c(nnn4CC)c3C)ccc2C)S(=O)(=O)c2cccnc2O1 [Example 109, (S)-3-(3-(((R)-4-Ethyl-1,1-dioxido-3,4-dihydro-2H-pyrido[2,3-b][1,4,5]oxathiazepin-2-yl)methyl)-4-methylphenyl)-3-(1-ethyl-4-methyl-1H-benzo[d][1,2,3]triazol-5-yl)-N-(pyrimidin-5-yl)propanamide]	10 to 100
CC[C@@H]1CN(Cc2cc([C@H](CC(=O)Nc3cccnc3)c3ccc4c(nnn4CC)c3C)ccc2Cl)S(=O)(=O)c2cccnc2O1 [Example 110, (S)-3-(4-Chloro-3-(((R)-4-ethyl-1,1-dioxido-3,4-dihydro-2H-pyrido[2,3-b][1,4,5]oxathiazepin-2-yl)methyl)phenyl)-3-(1-ethyl-4-methyl-1H-benzo[d][1,2,3]triazol-5-yl)-N-(pyridin-3-yl)propanamide]	10 to 100
CC[C@@H]1CN(Cc2cc([C@@H](c3ccc4c(nnn4C)c3C)C(C)(C)C(=O)Nc3ccncc3)ccc2C)Cc2cnccc2O1 [Example 112, (S)-3-(1,4-Dimethyl-1H-benzo[d][1,2,3]triazol-5-yl)-3-(3-(((R)-2-ethyl-2,3-dihydropyrido[3,4-f][1,4]oxazepin-4(5H)-yl)methyl)-4-methylphenyl)-2,2-dimethyl-N-(pyridin-4-yl)propanamide]	100 to 1000
